Data as given in ChEMBL document CHEMBL1201862, “PubChem BioAssay data set” (2004).
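These data come from cells grown in 96-well plates and exposed to compound for 48 hours at five concentrations. At the GI50, growth is halved.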 Calls of active or inactive are those of the source. Rule as the data show it: active = GI50 up to about 1.1 µM and inactive = higher.

Experiments:
Test in all cases: growth of human tumour cells (NCI), 48 h
DLD-1 = tested on: DLD-1
NCI-H23 = tested on: NCI-H23
MCF7 = tested on: MCF7
KM-20L2 = tested on: KM-20L2
Malme-3M = tested on: Malme-3M
DMS-273 = tested on: DMS-273
DMS-114 = tested on: DMS-114
CCRF-CEM = tested on: CCRF-CEM
XF498 = tested on: XF498
KM12 = tested on: KM12
NCI/ADR-RES = tested on: NCI/ADR-RES
M14 = tested on: M14
TK-10 = tested on: TK-10
SR = tested on: SR

Measured: GI50

O=S(=O)(O)c1ccc(/N=N\c2ccc(/N=N\c3ccc(/C=C/c4ccc(/N=[N+](/[O-])c5ccc(/C=C/c6ccc(/N=N/c7ccc(/N=N\c8ccc(S(=O)(=O)O)cc8)cc7)cc6S(=O)(=O)O)c(S(=O)(=O)O)c5)cc4S(=O)(=O)O)c(S(=O)(=O)O)c3)cc2)cc1
inactive: DLD-1 > 100 µM | NCI-H23 > 100 µM | MCF7 > 100 µM | KM-20L2 > 100 µM | Malme-3M > 100 µM | DMS-273 > 100 µM | DMS-114 > 100 µM | CCRF-CEM > 100 µM | XF498 > 100 µM | KM12 > 100 µM | NCI/ADR-RES > 100 µM

O=C(Nc1ccc(Cl)cc1)C(=O)C(C(=O)c1ccccc1-c1ccccc1)C1OC(=O)c2ccccc21 (centres undefined)
inactive: DLD-1 29 µM | NCI-H23 23.1 µM | KM-20L2 23.7 µM | M14 20 µM | DMS-273 29 µM | DMS-114 16.7 µM | CCRF-CEM 18.2 µM | TK-10 21.4 µM | XF498 17.9 µM | KM12 17.3 µM | SR 17.6 µM

OC1CCSc2ccccc21 (centres undefined)
inactive: DLD-1 > 100 µM | NCI-H23 > 100 µM | KM-20L2 > 100 µM | Malme-3M > 100 µM | M14 > 100 µM | DMS-273 > 100 µM | DMS-114 > 100 µM | CCRF-CEM > 100 µM | XF498 > 100 µM | KM12 > 100 µM | SR > 100 µM

COC(=O)C1C(O)C(C)C(O)OC1C(C)C(O)C(C)/C=C\C=C(/C)C(=O)Nc1c(C)c(OC(C)=O)c2c(c1O)C(=O)C(C)=C1OCOC(/C(C)=C/C(C)=O)=C12 (centres undefined)
inactive: DLD-1 8.93 µM | NCI-H23 14.2 µM | MCF7 13.9 µM | KM-20L2 12.9 µM | Malme-3M 13.5 µM | DMS-273 13.3 µM | DMS-114 10.1 µM | CCRF-CEM 5.96 µM | XF498 13.8 µM | KM12 14 µM | NCI/ADR-RES 15.1 µM

O=C(O)c1cn2c3c(cc(N4CCN(CCO)CC4)cc3c1=O)SCC2
inactive: DLD-1 > 100 µM | NCI-H23 57.5 µM | MCF7 29.7 µM | KM-20L2 > 100 µM | Malme-3M 37.2 µM | DMS-273 > 100 µM | DMS-114 51.3 µM | CCRF-CEM 48.8 µM | XF498 23.2 µM | KM12 > 76.9 µM | NCI/ADR-RES > 89.7 µM

CCCCCCCCCCCCCCCCNCC(O)CN (centres undefined)
inactive: DLD-1 1.87 µM | NCI-H23 6.71 µM | MCF7 2.36 µM | KM-20L2 2.65 µM | Malme-3M 16.2 µM | DMS-273 3.96 µM | DMS-114 5.69 µM | CCRF-CEM 1.96 µM | XF498 7.29 µM | KM12 1.75 µM | NCI/ADR-RES 2.22 µM

O=Cc1c(Cn2ccnc2)c2cc([N+](=O)[O-])ccc2n1Cc1ccccc1
inactive: DLD-1 > 100 µM | NCI-H23 > 100 µM | MCF7 75.3 µM | KM-20L2 89.9 µM | Malme-3M > 100 µM | DMS-273 > 100 µM | DMS-114 > 100 µM | CCRF-CEM 63.5 µM | XF498 > 100 µM | KM12 73.3 µM | NCI/ADR-RES > 61.8 µM

C=C1C(=O)OC2/C=C(\C(=O)O)CC/C=C(\C)CC(OC(=O)/C=C(\C)CC)C12 (centres undefined)
inactive: DLD-1 16.7 µM | NCI-H23 16.4 µM | KM-20L2 19.6 µM | Malme-3M 18.2 µM | M14 16.7 µM | DMS-273 19 µM | DMS-114 15.4 µM | CCRF-CEM > 100 µM | TK-10 34.6 µM | XF498 18.3 µM | KM12 14.4 µM | SR > 100 µM
